The test has as its target T1, hyaluronidase (HAase) (Bos taurus, UniProt Q2YDK3).
T1 construct: Hyaluronidase was obtained from bovine testes (Sigma-Aldrich, St. Louis, MO, USA); purchased Sigma-Aldrich; host or cells: bovine testes (tissue-derived)
T1 sequence (Q2YDK3 36-553): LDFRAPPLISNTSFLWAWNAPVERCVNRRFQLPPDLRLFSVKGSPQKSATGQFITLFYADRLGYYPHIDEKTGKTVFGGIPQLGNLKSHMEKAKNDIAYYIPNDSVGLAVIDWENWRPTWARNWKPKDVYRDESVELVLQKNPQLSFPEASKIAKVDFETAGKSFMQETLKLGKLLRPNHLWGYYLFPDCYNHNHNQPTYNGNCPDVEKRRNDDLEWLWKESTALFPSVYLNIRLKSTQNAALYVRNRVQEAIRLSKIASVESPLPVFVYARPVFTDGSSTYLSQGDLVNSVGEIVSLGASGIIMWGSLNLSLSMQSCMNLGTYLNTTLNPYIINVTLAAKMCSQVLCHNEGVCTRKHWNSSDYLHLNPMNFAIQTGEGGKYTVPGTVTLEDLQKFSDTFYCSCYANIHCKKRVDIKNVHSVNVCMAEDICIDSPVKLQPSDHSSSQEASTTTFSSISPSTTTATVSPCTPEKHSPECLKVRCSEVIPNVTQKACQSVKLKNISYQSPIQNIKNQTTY
The experiment in a line: Hyaluronidase inhibitory activity enzymatic assay (HA substrate, DMAB, absorbance 540 nm). The test is classed as biochemical. Conditions: hyaluronidase from bovine testes; EGCG positive control. An excerpt: Luria–Bertani Broth (LB) and Lactobacilli MRS Broth (Becton, Franklin Lakes, NJ, USA) were used for the bacterial culture. Silica gel (Merck, Darmstadt, Germany) and Sephadex LH-20 gel (Sigma-Aldrich, St. Louis, MO, USA) were used for chromatographic separations. Thin-layer chromatography (TLC) plates (Merck, Darmstadt, Germany) were used for analytical purposes. Hyaluronidase was obtained from bovine testes (Sigma-Aldrich, St. Louis, MO, USA). Nuclear magnetic resonance (NMR) spectrums were obtained using JNM-ECX 400 (FT-NMR system, 400 MHz, JEOL Co., Akishima, Japan).
In the enzymatic assay, 5 μL of hyaluronidase enzyme and 12.5 mM CaCl2 samples at varying concentrations were added to a 96-well plate. The samples were reacted for 20 min and incubated at 37 °C. After the initial incubation, 25 μL of the substrate solution (HA at a concentration of 2.4 mg/mL) was added. The reaction mixture was incubated again at 37 °C for 40 min. Then, 5 μL of 0.4 N NaOH and 5 μL of 0.4 M potassium tetraborate were added to the mixture, followed by incubation at 100 °C for 3 min. After cooling, 150 μL of DMAB solution (p-dimethylaminobenzaldehyde + acetic acid + 10 N HCL) was added to the reaction mixture. The absorbance of the reaction mixture was measured at 540 nm. Epigallocatechin gallate (EGCG) was used as a positive control in this assay.

On to `COC(=O)Cc1c[nH]c2ccccc12` [Methyl indole-3-acetate, methyl indole-3-acetate], for which the IC50 was determined as 344 µM. `O=C(O[C@@H]1Cc2c(O)cc(O)cc2O[C@@H]1c1cc(O)c(O)c(O)c1)c1cc(O)c(O)c(O)c1` [EGCG, Epigallocatechin gallate]: the IC50 worked out at 172 µM. This IC50 lies about 2-fold lower than the previous one.

(Values after PMC11083829, “Isolation, Characterization, Genome Annotation, and Evaluation of Hyaluronidase Inhibitory Activity in Secondary Metabolites of Brevibacillus sp. JNUCC 41: A Comprehensive Analysis through Molecular Docking and Molecular Dynamics Simulation” (International Journal of Molecular Sciences, 2024).)
